Test results reported in patent US4761483A, “Chloro-substituted ketone imidazole derivatives” (G. D. Searle & Co., priority 1985, dated 1988).
Values after ≈ are worked out from the molar mass of the structure shown. Values joined by “and” are separate entries in the source; they are usually repeats but may differ in a detail not shown here. Equal values may be shown once. Where a name gives a salt, the structure may show the parent alone. Read-outs that look alike come from different tables or passages of the source.

What was measured:
B. fragilis NCTC 10581 = assay: anti-anaerobic activity, MIC/MBC in 96 well microtitre plates, strain A; type: cell-based, Bacteroides fragilis; settings: for MBC / MIC: Bacteroides fragilis, NCTC10581, 48 h; for MBC: read-out: MBC (Minimum Bactericidal Concentration); for MIC: read-out: MIC (Minimum Inhibitory Concentration)
B. fragilis NCTC 9343 = assay: anti-anaerobic activity, MIC/MBC in 96 well microtitre plates, strain B; type: cell-based, Bacteroides fragilis; settings: for MIC / MBC: Bacteroides fragilis; for MIC: read-out: MIC (Minimum Inhibitory Concentration); for MBC: 99.9% reduction in viable count after 48 hours
B. fragilis NCTC 9344 = assay: anti-anaerobic activity, MIC/MBC in 96 well microtitre plates, strain C; type: cell-based, Bacteroides fragilis; settings: for MBC / MIC: Bacteroides fragilis, NCTC9344, 48 h; for MBC: read-out: MBC (Minimum Bactericidal Concentration); for MIC: read-out: MIC (Minimum Inhibitory Concentration)
[1] = tested on: B. fragilis MZ-R ATCC 11295; assay: anti-anaerobic activity, MIC/MBC in 96 well microtitre plates, strain D; type: cell-based, Bacteroides fragilis; settings: for MBC / MIC: Bacteroides fragilis, ATCC11295, 48 h; for MBC: read-out: MBC (Minimum Bactericidal Concentration); for MIC: read-out: MIC (Minimum Inhibitory Concentration)
Procedure: The screening panel utilized in the Example consisted of 5 strains of Bacteroides fragilis. All assays were carried out in 96 well microtitre plates. If an isolate was obtained from either a culture collection or clinical source, the isolate was immediately innoculated into Wilkens-Chalgren broth (Oxoid) and incubated at 37° C. in an anaerobic chamber in an atmosphere of 85% nitrogen, 10% carbon dioxide, and 5% hydrogen for 48 hours. At the end of this time, the viable count was about […] broth. A 1 ml aliquot of each culture was placed in an ampoule and quick frozen in acetone-dry ice mixture and stored in liquid nitrogen. When an inoculum was utilized in an assay, one of the ampoules was thawed and diluted with fresh broth to yield a suspension having a count of 5×10^5 organisms/ml. A 100 μl aliquot of the suspension was inoculated into each well of the microtitre plate. A 2 mg sample of the test compound wa dissolved in 0.2 ml of a suitable solvent such as dimethylsulfoxide, polyethylene glycol 200 or methanol. The solution was then diluted with 4.8 ml of water to yield a solution having a concentration of 400 mg/L. Doubling dilutions of this stock were prepared to give a range of concentrations from 1.6-200 mg/L. 100 μl of each concentration were then placed in the wells of the microtitre plate containing the inoculum, to produce a final concentration range of 0.8-100 mg/l. Metronidazole was employed as a positive control and a solvent/water mixture was employed as a negative control. After addition of the test solution the final inoculum level was 10^5 cells/ml. The plates were incubated for 48 hours at 37° C. in the anaerobic chamber. The Minimum Inhibitory Concentration (MIC) was read visually. The MIC is defined as the lowest concentration at which there is no detectable growth. The Minimum Bactericidal Concentration (MBC) was determined by taking a 50 μl aliquot from each well and placing it in fresh medium. […] The strains of Bacteroides fragilis utilized in the above procedure are identified by letter in accordance with the following legend: |D B. fragilis MZ-R ATCC 11295

B. fragilis WS-1 = assay: anti-anaerobic activity, MIC/MBC in 96 well microtitre plates, strain E; type: cell-based; settings: Bacteroides fragilis; for MIC: 48 hours at 37° C., anaerobic chamber, 10^5 cells/ml, read-out: MIC (Minimum Inhibitory Concentration); for MBC: 99.9% reduction in viable count after 48 hours
[2] = tested on: Clostridium perfringens NCTC 523; assay: microbe, parasite or virus in culture; type: cell-based; settings: NCTC523
[3] = tested on: Clostridium perfringens NCTC 8237; assay: microbe, parasite or virus in culture; type: cell-based; settings: NCTC8237
[4] = tested on: Campylobacter fetus ATCC 29428; assay: anti-anaerobic activity, MIC (procedures of Example 13); type: cell-based; settings: ATCC29428, procedures of Example 13 (there mg/L)
[5] = tested on: Fusobacterium necrophorum ATCC 11295; assay: as above; type: cell-based; settings: ATCC11295, procedures of Example 13 (there mg/L)
[6] = tested on: Peptococcus magnus ATCC 29328; assay: as above; type: cell-based; settings: Finegoldia magna, ATCC29328
[7] = tested on: Peptococcus prevotti ATCC 9321; assay: as above; type: cell-based
[8] = tested on: Peptostreptococcus anaerobicus ATCC 27337; assay: as above; type: cell-based; settings: ATCC27337
[9] = tested on: Propionibacterium acnes NCTC 737; assay: as above; type: cell-based; settings: Cutibacterium acnes, NCTC737, procedures of Example 13 (there mg/L)
[10] = tested on: Propionibacterium acnes NCTC 7337; assay: as above; type: cell-based; settings: Cutibacterium acnes, NCTC7337, procedures of Example 13 (there mg/L)
[11] = strain A, 99.9% reduction in viable count after 48 hours
[12] = strain A, 48 hours at 37° C., anaerobic chamber, 10^5 cells/ml
[13] = NCTC9343, 48 h, strain B, 48 hours at 37° C., anaerobic chamber, 10^5 cells/ml
[14] = NCTC9343, strain B, read-out: MBC (Minimum Bactericidal Concentration)
[15] = strain C, 99.9% reduction in viable count after 48 hours
[16] = strain C, 48 hours at 37° C., anaerobic chamber, 10^5 cells/ml
[17] = 99.9% reduction in viable count after 48 hours
[18] = 48 hours at 37° C., anaerobic chamber, 10^5 cells/ml
[19] = WS1, strain E, read-out: MBC (Minimum Bactericidal Concentration)

Row | Structure (SMILES) | MBC (B. fragilis NCTC 10581; [11]) [µg/mL] | MIC (B. fragilis NCTC 10581; [12]) [µg/mL] | MIC (B. fragilis NCTC 9343; [13]) [µg/mL] | MBC (B. fragilis NCTC 9343; [14]) [µg/mL] | MBC (B. fragilis NCTC 9344; [15]) [µg/mL] | MIC (B. fragilis NCTC 9344; [16]) [µg/mL] | MBC [1, 17] [µg/mL] | MIC [1, 18] [µg/mL] | MIC (B. fragilis WS-1; WS1, 48 h, strain E) [µg/mL] | MBC (B. fragilis WS-1; [19]) [µg/mL] | further results
1 | O=C(c1ccc(Cl)cc1Cl)C(Cl)(Cn1ccnc1)c1ccccc1 (stereo not drawn) [Example 4, 2-Chloro-1-(2,4-dichlorophenyl)-3-(imidazol-1-yl)-2-phenylpropan-1-one] | 6.2 (≈ 16.3 µM) | 0.8 (≈ 2.11 µM) | 0.8 (≈ 2.11 µM) | 6.2 (≈ 16.3 µM) | 12.5 (≈ 32.9 µM) | 0.8 (≈ 2.11 µM) | 3.1 (≈ 8.16 µM) | 0.8 (≈ 2.11 µM) | 0.8 (≈ 2.11 µM) | 6.2 (≈ 16.3 µM) | MIC [2]: 0.8 µg/mL (≈ 2.11 µM); MIC [3]: 0.8 µg/mL (≈ 2.11 µM); MIC [4]: 0.8 µg/mL (≈ 2.11 µM); MIC [5]: 0.8 µg/mL (≈ 2.11 µM); MIC ([6]; Peptococcus magnus ATCC 29328, procedures of Example 13 (there mg/L), read-out: MIC): 0.8 µg/mL (≈ 2.11 µM); MIC ([7]; Peptococcus prevotti ATCC 9321, procedures of Example 13 (there mg/L), read-out: MIC): 0.8 µg/mL (≈ 2.11 µM); MIC ([8]; Peptostreptococcus anaerobicus ATCC 27337, procedures of Example 13 (there mg/L), read-out: MIC): 0.8 µg/mL (≈ 2.11 µM); MIC [9]: 0.8 µg/mL (≈ 2.11 µM); MIC [10]: 0.8 µg/mL (≈ 2.11 µM)
2 | COC(=O)CCc1cn(CC(Cl)(C(=O)c2ccc(Cl)cc2Cl)c2ccccc2)cn1 (stereo not drawn) [Example 5, 3-[1-[2-Chloro-3-(2,4-dichlorophenyl)-3-oxo-2-phenylpropyl]-imidazol-4-yl]propanoic acid methyl ester] | 1.5 (≈ 3.22 µM) | 1.5 (≈ 3.22 µM) | 1.5 (≈ 3.22 µM) | 1.5 (≈ 3.22 µM) | 1.5 (≈ 3.22 µM) | 1.5 (≈ 3.22 µM) | 0.8 (≈ 1.72 µM) | 0.8 (≈ 1.72 µM) | 3.1 (≈ 6.66 µM) | 3.1 (≈ 6.66 µM) | 
3 | O=C(O)/C=C/c1cn(CC(Cl)(C(=O)c2ccc(Cl)cc2Cl)c2ccccc2)cn1 (stereo not drawn) [Example 6, E-3-[1-[2-Chloro-3-(2,4-dichlorophenyl)-3-oxo-2-phenylpropyl]imidazol-1-yl]propenoic acid hydrochloride] | 0.8 | 0.8 | 1.5 | 3.1 | 0.8 | 0.8 | 0.8 | 0.8 | 3.1 | 3.1 | 
4 | N[C@@H](Cc1cn(CC(Cl)(C(=O)c2ccc(Cl)cc2Cl)c2ccccc2)cn1)C(=O)O (stereo partly drawn) [Example 8, 1-[2-Chloro-3-(2,4-dichlorophenyl)-3-oxo-2-phenylpropyl]-L-histidine] | 0.8 (≈ 1.71 µM) | 0.8 (≈ 1.71 µM) | 0.8 (≈ 1.71 µM) | 0.8 (≈ 1.71 µM) | 0.8 (≈ 1.71 µM) | 0.8 (≈ 1.71 µM) | 0.8 (≈ 1.71 µM) | 0.8 (≈ 1.71 µM) | 3.1 (≈ 6.64 µM) | 3.1 (≈ 6.64 µM) | 
5 | C[C@H](NC(=O)[C@H](Cc1cn(CC(Cl)(C(=O)c2ccc(Cl)cc2Cl)c2ccccc2)cn1)NC(=O)OC(C)(C)C)C(=O)OC(C)(C)C (stereo partly drawn) [Example 9, N-[1-[2-Chloro-3-(2,4-dichlorophenyl)-3-oxo-2-phenylpropyl]-N-[(1,1-dimethylethoxy)carbonyl]-L-histidyl]-L-alanine 1,1-dimethylethyl ester] | 6.2 (≈ 8.93 µM) | 3.1 (≈ 4.47 µM) | 3.1 (≈ 4.47 µM) | 3.1 (≈ 4.47 µM) | 6.2 (≈ 8.93 µM) | 6.2 (≈ 8.93 µM) | 0.8 (≈ 1.15 µM) | 0.8 (≈ 1.15 µM) | 12.5 (≈ 18 µM) | 12.5 (≈ 18 µM) | 
6 | C[C@H](NC(=O)[C@@H](N)Cc1cn(CC(Cl)(C(=O)c2ccc(Cl)cc2Cl)c2ccccc2)cn1)C(=O)O (stereo partly drawn) [Example 10, N-[1-[2-Chloro-3-(2,4-dichlorophenyl)-3-oxo-2-phenylpropyl]-L-histidyl]-L-alanine] | 3.1 (≈ 5.76 µM) | 3.1 (≈ 5.76 µM) | 3.1 (≈ 5.76 µM) | 3.1 (≈ 5.76 µM) | 6.2 (≈ 11.5 µM) | 3.1 (≈ 5.76 µM) | 0.8 (≈ 1.49 µM) | 0.8 (≈ 1.49 µM) | 6.2 (≈ 11.5 µM) | 6.2 (≈ 11.5 µM) | 
7 | C[C@H](NC(=O)[C@@H](N)CCCCNC(=O)/C=C/c1cn(CC(Cl)(C(=O)c2ccc(Cl)cc2Cl)c2ccccc2)cn1)C(=O)O (stereo partly drawn) [Example 12, N-[N^6-[E-3-[1-[2-Chloro-3-(2,4-dichlorophenyl)-3-oxo-2-phenylpropyl]imidazol-4-yl]propenoyl]-L-lysinyl]-L-alanine] | 3.1 (≈ 4.78 µM) | 1.5 (≈ 2.31 µM) | 1.5 (≈ 2.31 µM) | 1.5 (≈ 2.31 µM) | 3.1 (≈ 4.78 µM) | 3.1 (≈ 4.78 µM) | 0.8 (≈ 1.23 µM) | 0.8 (≈ 1.23 µM) | 6.2 (≈ 9.55 µM) | 6.2 (≈ 9.55 µM) | 
8 | Cc1ncc([N+](=O)[O-])n1CCO [Metronidazole, reference compound] | 0.8 (≈ 4.67 µM) | 0.8 (≈ 4.67 µM) | 0.8 (≈ 4.67 µM) | 0.8 (≈ 4.67 µM) | 0.8 (≈ 4.67 µM) | 0.8 (≈ 4.67 µM) | 6.2 (≈ 36.2 µM) | 6.2 (≈ 36.2 µM) |  | 1.5 (≈ 8.76 µM) | MBC (B. fragilis NCTC 10581): 1.2 µg/mL (≈ 7.01 µM); MBC (Minimum Bactericidal Concentration) (B. fragilis NCTC 10581; [11]): 0.6 µg/mL (≈ 3.51 µM); MIC (Minimum Inhibitory Concentration) (B. fragilis NCTC 10581; [12]): 0.6 µg/mL (≈ 3.51 µM); MBC (B. fragilis NCTC 9343; NCTC9343, 48 h, read-out: MBC (Minimum Bactericidal Concentration), strain B): 1.2 µg/mL (≈ 7.01 µM); MIC (Minimum Inhibitory Concentration) (B. fragilis NCTC 9343; strain B, 48 hours at 37° C., anaerobic chamber, 10^5 cells/ml): 1.2 µg/mL and 0.6 µg/mL; MBC (B. fragilis NCTC 9344): 1.2 µg/mL (≈ 7.01 µM); MBC (Minimum Bactericidal Concentration) (B. fragilis NCTC 9344; [15]): 0.6 µg/mL (≈ 3.51 µM); MIC (Minimum Inhibitory Concentration) (B. fragilis NCTC 9344; [16]): 0.6 µg/mL and 1.2 µg/mL; MBC (Minimum Bactericidal Concentration) [1, 17]: 10.0 µg/mL (≈ 58.4 µM); MIC (Minimum Inhibitory Concentration) [1, 18]: 10.0 µg/mL (≈ 58.4 µM); MBC (B. fragilis WS-1; WS1, 48 h, read-out: MBC (Minimum Bactericidal Concentration), strain E): 1.2 µg/mL (≈ 7.01 µM); MIC [2]: 0.8 µg/mL (≈ 4.67 µM); MIC [3]: 0.8 µg/mL (≈ 4.67 µM); MIC [4]: > 100 µg/mL; MIC [5]: 6.2 µg/mL (≈ 36.2 µM); MIC [6]: 0.8 µg/mL (≈ 4.67 µM); MIC [7]: 1.5 µg/mL (≈ 8.76 µM); MIC ([8]; Peptostreptococcus): 0.8 µg/mL (≈ 4.67 µM); MIC [9]: > 100 µg/mL; MIC [10]: > 100 µg/mL
